Source: US20180355369A1, “Method for Increasing Plant Stress Tolerance and Seed Dormancy” (The Australian National University, priority 2015, published 2018)
Entries after “also recorded” stand apart in the source; their conditions may differ.

Columns and labels:
guard cells [1] = test: ROS accumulation in guard cells of epidermal peels; type: cell-based, Arabidopsis; settings: wild type, ost1-2 and ost1-2 alx8
Method: The ABA- and PAP-induced accumulation of ROS in guard cells of epidermal peels was measured using dichlorofluorescein diacetate (H2DCFDA, Invitrogen). After 2 h of incubation in OB, the epidermal peel was incubated with 20 μM dye dissolved in DMSO and MB for 30 min, and then rinsed with MB three times. Epidermal peels were incubated in ABA or PAP dissolved in MB (or MB only as a negative control) for 10 min. Fluorescence images were taken using a Leica inverted confocal microscope controlled by the LAS AF software (Leica Microsystems, Germany). We used the 496-nm excitation line of an argon multiline laser. H2DCFDA fluorescence emission was detected at 505 to 525 nm. Chloroplast fluorescence was detected at 680 to 700 nm in order to separate the autofluorescence of chlorophyll in guard cells. Images were quantified with Image J software (National Institutes of Health, USA). The background signal was measured from the empty region of the similar size and subtracted from the stomata signal to obtain corrected total stomatal fluorescence values. Each stomate was considered to represent a single biological unit and thus fluorescence values were averaged across all stomata at each time point for each treatment. At least three biological replicates were measured for each treatment.

stomata [2] = test: Stomatal aperture in epidermal leaf peels; type: cell-based, Arabidopsis
Method: (§1) Five- to six-week-old plants were used to prepare epidermal peels. ABA at a concentration of 20 μM in water was root fed to hydroponically grown plants or sprayed onto leaves using a Studio Series IS-875 with a 0.5 mm nozzle opening (Iwata). We investigated if PAP accumulation in the double mutants could affect the production of NO during ABA-induced stomatal closure by treating epidermal peels with the inhibitor of NO synthase N(G)-methyl-L-arginine (NMA). For the investigation of the effect of different chemicals on stomatal closure, 20 μM ABA (Sigma-Aldrich), 100 mM LiCl, or 1 mM ATP, 1 mM or 100 μM PAP (Sigma-Aldrich) alone or in different combinations were prepared in infiltration buffer (1 mM PIPES KOH pH 6.0, 1 mM Sodium citrate, 1 mM KCl, 15 mM Sucrose) modified from a cordycepin infiltration buffer.
Measurements of stomatal aperture were performed with epidermal strips taken from five- to six-week-old plants. Fully developed leaves were cut and placed with their adaxial side onto cello tape. The vein was removed by razor blade and the abaxial epidermis was subsequently peeled off by using another strip of cello tape. To promote stomatal opening, the peels left adhered to the Scotch (810D Magic Tape, ¾ inch, 3M) were placed in petri dishes filled with stomatal opening solution (10 mM MES, 5 mM KCl, 50 μM CaCl2, pH 6.5) and incubated for 2 h at 22° C. under 150-200 μmol photons m^−2 s^−1 of light. Once the stomata were fully open, strips were maintained in the opening buffer or treated with various compounds according to the experiment. After treatment, photographs of stomata were taken using Leica microscope (Leica Microsystems, Wetzlar, Germany) at 20×. Stomatal aperture was measured using the image-processing software ImageJ. For stomatal aperture measurements, the ratio of stomatal pore width and length was used instead of width as this normalizes the pores of stomata of different size. Small stomata with a stomatal pore length of less than 7.5 μm were discarded. For each data point, 90 stomata were measured in 3 independent experiments. In each experiment, 10 stomata were measured in 3 epidermal strips per sample per treatment.
(§2) Measurements of stomatal closure in response to ABA, PAP, cordycepin and ATP treatments were performed on epidermal strips from Arabidopsis and barley plants grown under specific conditions. Plants were grown under high humidity (approximately 80% RH) and 12 h/12 h and 22/20° C. light/dark cycle in a growth chamber. Epidermal peels of newly expanding true leaves of three to four-week old plants. Stomatal apertures were measured in epidermal peels of newly expanded leaves. Peels were taken from the abaxial leaf surface and were fixed to the glass bottom of the experimental chamber after coating the chamber surface with an optically clear and pressure-sensitive silicon adhesive (Factor II, Tucson, USA). The attached epidermal peel is subsequently immersed in an opening buffer (OB: 50 mM KCl, 5 mM MES titrated to pH 6.1 with NaOH) and incubated, at plant growth conditions, for approximately 2 h. Stomatal images were taken using a bright-field microscope capable of 400× magnification for 10 minutes in OB and subsequently in Measuring Buffer [MB: 10 mM KCl, 5 mM MES titrated to pH 6.1 with Ca(OH)2] or PAP or cordycepin or ABA (dissolved in MB) for another 50 min. In total this was a 60 minute time course and images of the epidermal section were taken every 5 minutes using NIS Elements software (Nikon, Japan). Stomata aperture width and length were measured using Image J (NIH, USA). The pore area of each stomate was calculated using these values under the assumption that the area of a stomatal pore was that of an ellipse. Data are expressed as percentage over the control.

[3] = PAP quantification in leaves after exogenous ABA; type: in vivo, Arabidopsis; settings: wild type leaves
Method: as §1
(§3) Total adenosines were extracted with 0.1 M HCl, derivatization with chloroacetaldehyde and quantified fluorometrically after HPLC fractionation. 3′-phosphoadenosine 5′-phosphate (PAP) quantification was performed by integrating the HPLC peak area and converting these to pmol units using standard curves of 1, 5 and 10 pmol standard.

[4] = PAP accumulation in leaves after petiole feeding; type: in vivo, Arabidopsis; settings: petiole feeding of PAP for 1 h, alone or co-applied with LiCl or ATP
Method: as §1, §3

stomata [5] = test: Stomatal aperture in barley leaf epidermal peels; type: cell-based; settings: exogenous PAP 100 μM
Method: as §2, with “Stomatal images were taken using a bright-field microscope capable of 400× magnification for 10 minutes in OB and subsequently in Measuring Buffer [MB: 10 mM KCl, 5 mM MES titrated to pH 6.1 with Ca(OH)2] or PAP or cordycepin or ABA (dissolved in MB) for another 50 min. In total this was a 60 minute time course and images of the epidermal section were taken every 5 minutes using NIS Elements software (Nikon, Japan).” left out

guard cells [6] = test: Ion fluxes (K+, Cl- and Ca2+) in guard cells; type: cell-based, Arabidopsis; settings: wild type, ost1-2, alx8 and ost1-2 alx8
seeds = test: Seed germination assay; type: in vivo, Arabidopsis
Method: Seeds used for germination assays were 3-months-old and all from seed stocks produced and harvested from plants grown under identical conditions at the same time. Seeds were sterilized and grown on 0.8% (w/v) agar plates containing Murashige-Skoog (MS) nutrients and 2% (w/v) sucrose. Different combinations of 0, 1 μM ABA, 0, 0.5 μM paclobutrazol and/or 0, 100, 500 and 1000 μM PAP were supplemented into the media using the infiltration buffer. At least 70-100 seeds from each genotype were plated on the same plate for efficient comparison. The seeds were stratified at 4° C. in the dark for 48 h before transfer to a growth cabinet and grown at 22° C. under 24-h light (100 μmol photons m^−2 s^−1) unless stated otherwise. The germination was scored after 3 days as the emergence of the radicle through the seed coat and the germination rate was calculated as the percentage of the total number of seeds per treatment with five replicates for each treatment. The experiment was repeated twice and statistical analyses are described below.

Structure (SMILES)	ROS burst in guard cells (guard cells [1])	time to ABA-induced stomatal closure (stomata [2]; epidermal peels, FIGS. 5B and 5D)	PAP accumulation stimulated by exogenous ABA [3]	accumulation of PAP in leaves [4]	magnitude and rate of ABA-mediated stomatal closure with added PAP (stomata [2]; PAP together with ABA)	stomatal closure in leaf peels (stomata [2]; leaf peels of wild type plants, 1 hr, PAP 100 μM, ABA 100 μM, cordycepin 10 μM)	stomatal conductance in barley (stomata [5])	ion fluxes (guard cells [6])	ABA responsiveness of germination in abi1-1 (seeds; abi1-1 seeds, addition of PAP alone)	seed germination / dormancy (seeds; wild type seeds, exogenous PAP in conjunction with exogenous ABA (1 μM) or lower GA)
CC1=CC(=O)CC(C)(C)C1(O)/C=C/C(C)=C\C(=O)O (centres unmarked) [ABA]	ROS burst known to stimulate stomatal closure was observed in response to ABA treatment in wild type	< 10 min	stimulates PAP accumulation by four fold							
Nc1ncnc2c1ncn2[C@@H]1O[C@H](COP(=O)(O)O)[C@@H](OP(=O)(O)O)[C@H]1O [PAP, 3′-phosphoadenosine 5′-phosphate]	phenocopying of the timing and extent of the ABA-induced ROS burst			results in accumulation of PAP in leaves	further enhanced	elicited rapid stomatal closure similar to the ABA response; also recorded: nearly identical to that of ABA	regulates stomatal conductance in barley	mediated similar rapid changes in ion fluxes in all genotypes	restored ABA responsiveness in abi1-1	extended the dormancy of seeds; also recorded: repress germination in wild type seeds in a dose-dependent manner
